Experiments:
[1] = Therapeutic index (LD50/ID50, MAA) value of the compound; conditions: read-out: TI
Mus musculus [2] = assay: Tested for antiinflammatory activity in the mouse active Arthus (MAA) test by peroral administration; format: functional; conditions: for ED50: po, read-out: ID50 (the source's name)
Rattus norvegicus [3] = species on record: Rattus norvegicus; assay: animal or person; conditions: po, read-out: Inhibition
Description: Biological activity against adjuvant-induced arthritis at the dose of 30 mg/kg (p.o.); 30/30

Rattus norvegicus [4] = assay: Biological activity against adjuvant-induced arthritis at the dose of 30 mg/kg (p.o.); format: functional; conditions: route oral
Mus musculus [5] = assay: Tested for antiinflammatory activity in the mouse active Arthus (MAA) test by intraperitoneal administration; format: functional; conditions: ip, read-out: ID50 (the source's name)
Rattus norvegicus [6] = assay: Biological activity against carrageenan-induced edema; format: functional; conditions: read-out: ID50 (the source's name)
Rattus norvegicus [7] = species on record: Rattus norvegicus; assay: animal or person; conditions: po, read-out: Inhibition; remark: listed apart in the source
Description: Biological activity against adjuvant-induced arthritis at the dose of 60 mg/kg (p.o.); 56/61

Rattus norvegicus [8] = assay: Biological activity against adjuvant-induced arthritis at the dose of 60 mg/kg (p.o.); format: functional; conditions: route oral
[9] = Lethal dose required to produce acute toxicity in mice(po); format: organism-based; conditions: mouse, in vivo
Rattus norvegicus [10] = assay: Biological activity against adjuvant-induced arthritis at the dose of 120 mg/kg (p.o.); format: functional; conditions: route oral
Rattus norvegicus [11] = assay: Biological activity against adjuvant-induced arthritis at the dose of 120 mg/kg (p.o.); 65/57; format: functional; conditions: route oral
[12] = Lethal dose required to produce acute toxicity in mice(ip); format: organism-based; conditions: mouse, in vivo
Rattus norvegicus [13] = assay: Biological activity against adjuvant-induced arthritis at the dose of 150 mg/kg (p.o.); 21/73; format: functional; conditions: route oral
Rattus norvegicus [14] = assay: Biological activity against adjuvant-induced arthritis at the dose of 37.5 mg/kg (p.o.); 18/7; format: functional; conditions: route oral
Rattus norvegicus [15] = assay: Biological activity against adjuvant-induced arthritis at the dose of 75 mg/kg (p.o.); format: functional; conditions: route oral
Rattus norvegicus [16] = assay: Biological activity against adjuvant-induced arthritis at the dose of 150 mg/kg (p.o.); format: functional; conditions: route oral
Rattus norvegicus [17] = assay: Biological activity against adjuvant-induced arthritis at the dose of 75 mg/kg (p.o.); 27/26; format: functional; conditions: route oral
Rattus norvegicus [18] = assay: Biological activity against adjuvant-induced arthritis at the dose of 37.5 mg/kg (p.o.); format: functional; conditions: route oral

For `CC(C)Cc1ccc(C(C)C(=O)O)cc1` (configuration not stated) [IBUPROFEN], which selectivity ratio [1] is on record?
The selectivity ratio was less than 2.15.

And the ID40 (Mus musculus [2])?
The ID40 was 386 mg/kg.

What about the ED50 (Mus musculus [2]) of the same compound?
Its ED50 is greater than 600 mg/kg.

And the inhibition in vivo at 30 mg/kg (Rattus norvegicus [3])?
Its inhibition in vivo at 30 mg/kg is 30%.

What about the inhibition in vivo at 30 mg/kg (Rattus norvegicus [4]) of the same compound?
Its inhibition in vivo at 30 mg/kg is 100%.

What about the ED50 (Mus musculus [5]) of the same compound?
Its ED50 is greater than 150 mg/kg.

And the ED50 (Rattus norvegicus [6])?
The ED50 was 70 mg/kg.

What about the inhibition in vivo at 60 mg/kg (Rattus norvegicus [7]) of the same compound?
Its inhibition in vivo at 60 mg/kg is 56%.

And the inhibition in vivo at 60 mg/kg (Rattus norvegicus [8])?
The inhibition in vivo at 60 mg/kg was 100%.

What about the LD50 [9] of the same compound?
The LD50 was 1650 mg/kg.

What about the inhibition in vivo at 120 mg/kg (Rattus norvegicus [10]) of the same compound?
The inhibition in vivo at 120 mg/kg was 100%.

What about the inhibition in vivo at 120 mg/kg (Rattus norvegicus [11]) of the same compound?
The inhibition in vivo at 120 mg/kg was 65%.

And the LD50 [12]?
The LD50 was 490 mg/kg.

For `CCC(=O)n1nc(-c2ccc(Cl)cc2)nc1C`, which ED50 (Mus musculus [2]) is on record?
The ED50 was 408 mg/kg.

With `CCc1nnc(CC)n1/N=C(\N)c1ccc(Cl)cc1` as the compound, how does the ED50 (Mus musculus [2]) read?
Its ED50 is greater than 600 mg/kg.

With `Cc1nnc(C)n1/N=C(\N)c1ccccc1` as the compound, how does the ED50 (Mus musculus [2]) read?
The ED50 was greater than 600 mg/kg.

With `CC(=O)n1nc(-c2ccc(Cl)cc2)nc1C` as the compound, how does the selectivity ratio [1] read?
The selectivity ratio was greater than 9.35.

What about the ID40 (Mus musculus [2]) of the same compound?
Its ID40 is 175 mg/kg.

And the ED50 (Mus musculus [2])?
The ED50 was 342 mg/kg.

And the inhibition in vivo at 150 mg/kg (Rattus norvegicus [13])?
Its inhibition in vivo at 150 mg/kg is 21%.

What about the ED50 (Mus musculus [5]) of the same compound?
Its ED50 is 37 mg/kg.

What about the inhibition in vivo at 37.5 mg/kg (Rattus norvegicus [14]) of the same compound?
Its inhibition in vivo at 37.5 mg/kg is 18%.

And the ED50 (Rattus norvegicus [6])?
Its ED50 is greater than 150 mg/kg.

What about the inhibition in vivo at 75 mg/kg (Rattus norvegicus [15]) of the same compound?
Its inhibition in vivo at 75 mg/kg is 90%.

And the LD50 [9]?
Its LD50 is greater than 3200 mg/kg.

What about the inhibition in vivo at 150 mg/kg (Rattus norvegicus [16]) of the same compound?
Its inhibition in vivo at 150 mg/kg is 90%.

And the inhibition in vivo at 75 mg/kg (Rattus norvegicus [17])?
Its inhibition in vivo at 75 mg/kg is 27%.

And the inhibition in vivo at 37.5 mg/kg (Rattus norvegicus [18])?
The inhibition in vivo at 37.5 mg/kg was 90%.

And the LD50 [12]?
The LD50 was 600 mg/kg.

For `CC(=O)n1nc(-c2ccc(C(F)(F)F)cc2)nc1C`, which ED50 (Mus musculus [2]) is on record?
Its ED50 is 411 mg/kg.

For `CC(=O)n1nc(-c2ccc(C)cc2)nc1C`, which ED50 (Mus musculus [2]) is on record?
The ED50 was greater than 600 mg/kg.

Which ED50 (Mus musculus [2]) does the source give for `CCc1nnc(CC)n1N` here?
Its ED50 is greater than 600 mg/kg.

With `Cc1ccc(C(=N)Nn2c(C)nnc2C)cc1` as the compound, how does the ED50 (Mus musculus [2]) read?
The ED50 was greater than 600 mg/kg.

For `CC(=O)n1nc(-c2ccccc2)nc1C`, which ED50 (Mus musculus [2]) is on record?
The ED50 was 439 mg/kg.

With `Cc1nc(-c2ccc(Cl)cc2)nn1C(=O)c1ccccc1` as the compound, how does the ED50 (Mus musculus [2]) read?
The ED50 was greater than 600 mg/kg.

For `Cc1nnc(C)n1/N=C(\N)c1ccc(C(F)(F)F)cc1`, which ED50 (Mus musculus [2]) is on record?
The ED50 was greater than 600 mg/kg.

For `CCc1nc(-c2ccc(Cl)cc2)nn1C(C)=O`, which ED50 (Mus musculus [2]) is on record?
Its ED50 is 543 mg/kg.
